Assay [1] addresses T1, human TDO (TDO-expressing HEK293 cells) (Homo sapiens, UniProt P48775).
T1 construct: expressed in transfected cells
As to the kind of experiment: Cell based kynurenine assay, TDO-expressing HEK293 cell clones. Particulars: TDO-expressing HEK293 cells, 24 hours incubation; geometric mean; read-out: HEK293 TDO Kynurenine GMean IC50 (μM) (Cellular Assay). On the procedure: (§1) Determine Inhibitor Activity Against IDO or TDO in Cell Based Kynurenine Assay
(§2) IDO1-expressing or TDO-expressing HEK293 cell clones are generated upon stable transfection of plasmids expressing human IDO or human TDO under the control of CMV promoter. Cells are selected in DMEM media supplemented with 10% fetal bovine serum and 1 mg/ml G418 at 37° C. in a humidified incubator supplied with 5% CO2. The assays are performed as follows.
(§3) Cells were seeded in a 96 well plate in 50 μL of culture media at a density of 2.5×10^4 per well. Serial dilutions of compounds (in total volume of 50 μL culture media) are added into cells. 4 wells containing 0.2% DMSO treated cells serve as high controls and 4 wells containing media only with 0.2% DMSO serve as low controls. After 24 hours of incubation, the supernatant was transferred to a 384 well reaction plate and the kynurenine level determined. The percentage inhibition at individual concentrations relative to high and low controls is calculated. The data is analyzed by using nonlinear regression to generate IC50 values.

Assay [2] deals with T2, Human Tryptophan 2,3-dioxygenase (TDO) (Homo sapiens, UniProt P48775).
T2 construct: His tag (N); made in house; host or cells: E. coli
T2 sequence (P48775 whole entry): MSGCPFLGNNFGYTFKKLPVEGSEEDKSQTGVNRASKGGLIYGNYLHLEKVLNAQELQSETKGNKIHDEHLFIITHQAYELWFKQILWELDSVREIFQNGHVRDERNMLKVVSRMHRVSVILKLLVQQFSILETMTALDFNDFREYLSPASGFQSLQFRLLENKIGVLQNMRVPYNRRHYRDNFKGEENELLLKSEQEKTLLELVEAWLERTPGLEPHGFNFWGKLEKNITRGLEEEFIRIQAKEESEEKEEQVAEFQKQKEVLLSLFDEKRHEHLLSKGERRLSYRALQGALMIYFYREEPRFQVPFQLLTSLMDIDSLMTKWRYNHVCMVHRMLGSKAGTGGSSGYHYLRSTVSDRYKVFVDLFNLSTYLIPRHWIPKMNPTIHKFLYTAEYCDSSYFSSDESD
The assay is described as follows: Human TDO enzymatic assay (kynurenine level). The conditions noted are these: 1 nM TDO, 350 μM L-Trp; geometric mean; read-out: TDO GMean: IC50 (μM) (Biochemical Assay). The assay is classed as biochemical. The method, boiled down:
(§4)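 IDO conditions: 6 nM His-IDO, 10 μM L-Trp, 5 μM methylene blue, 20 min, RT. TDO conditions: 1 nM His-TDO, 350 μM L-Trp, 0.4 μM methylene blue, 70 min, RT. Both used pH 6.5 phosphate plus ascorbate/catalase, TCA stop at 50° C, kynurenine readout, nonlinear-regression IC50.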

Assay [3] has as its target T3, Human Indoleamine 2,3-dioxygenase (IDO) (Homo sapiens, UniProt P14902).
T3 construct: His tag (N); made in house; host or cells: E. coli
The assay is described as follows: Human IDO enzymatic assay (kynurenine level). The format is biochemical. Particulars: 6 nM IDO, 10 μM L-Trp; geometric mean; read-out: IDO1 GMean: IC50 (μM) (Biochemical Assay). The method, boiled down: as §4

Assay [4] concerns the target T4, human IDO (IDO1-expressing HEK293 cells) (Homo sapiens, UniProt P14902).
T4 construct: expressed in transfected cells
As to the kind of experiment: Cell based kynurenine assay, IDO1-expressing HEK293 cell clones. Particulars: IDO1-expressing HEK293 cells, 24 hours incubation; geometric mean; read-out: HEK293 IDO1 Kynurenine GMean IC50 (μM) (Cellular Assay). The procedure:
as §1, §2, §3

Data on twelve compounds can be found in US10508085B2, “Compounds and methods for IDO and TDO modulation, and indications therefor” (Plexxikon Inc., priority 2016, dated 2019).

Broadly, the IC50 is the concentration needed to halve the response being measured.

T4 sequence (P14902 whole entry): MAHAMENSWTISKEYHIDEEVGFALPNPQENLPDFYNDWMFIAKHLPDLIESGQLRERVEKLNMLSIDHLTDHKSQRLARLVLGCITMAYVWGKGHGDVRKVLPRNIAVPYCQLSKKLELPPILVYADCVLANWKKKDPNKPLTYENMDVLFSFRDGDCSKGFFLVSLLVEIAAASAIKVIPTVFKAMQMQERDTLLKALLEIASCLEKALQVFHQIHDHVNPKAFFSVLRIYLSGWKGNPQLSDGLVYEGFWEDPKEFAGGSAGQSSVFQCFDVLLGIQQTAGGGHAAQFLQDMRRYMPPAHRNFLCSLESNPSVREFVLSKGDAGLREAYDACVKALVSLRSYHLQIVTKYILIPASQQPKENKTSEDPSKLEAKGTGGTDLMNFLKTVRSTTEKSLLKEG
T3 sequence (P14902 whole entry): as above
T1 sequence (P48775 whole entry): as the sequence (P48775 whole entry) above

Take `OC(c1cc(Cl)cc2cn[nH]c12)C12CC3CC(CC(C3)C1)C2` [Compound P-0010, ((1S,3s)-adamantan-l-yl)(5-chloro-1H-indazol-7-yl)methanol]: the IC50 in assay [1], in assay [2], in assay [3] and in assay [4] was 0.0001 to 10 µM in each case.

For `OC1(c2cc(Cl)cc3cn[nH]c23)CC2(CCC2)C1` [Compound P-0012, 2-(5-chloro-1H-indazol-7-yl)spiro[3.3]heptan-2-ol], the IC50 was 0.0001 to 10 µM in assay [1], 0.0001 to 10 µM in assay [2], 0.0001 to 10 µM in assay [3] and more than 10 µM in assay [4].

Turning to `CC1(C(O)c2cc(C(F)(F)F)cc3cn[nH]c23)CCCCC1` (stereo not drawn) [Compound P-0013, (1-methylcyclohexyl)(5-(trifluoromethyl)-1H-indazol-7-yl)methanol], the IC50 in assay [1], in assay [2], in assay [3] and in assay [4] was 0.0001 to 10 µM throughout.

Turning to `Cc1cc(C(O)C2(C)CCCCC2)c2[nH]ncc2c1` (stereo not drawn) [Compound P-0014, (5-methyl-1H-indazol-7-yl)(1-methylcyclohexyl)methanol], the IC50 in assay [1], in assay [2], in assay [3] and in assay [4] was 0.0001 to 10 µM each time.

On to `OC(c1cc(Cl)cc2cn[nH]c12)C1CC(F)(F)C1` (stereo not drawn) [Compound P-0017, (5-chloro-1H-indazol-7-yl)(3,3-difluorocyclobutyl)methanol], for which the half-maximal inhibitory concentration (IC50) in assay [1], in assay [2], in assay [3] and in assay [4] was 0.0001 to 10 µM each time.

For `CC1(C(O)c2cc(Cl)cc3cn[nH]c23)CC(F)(F)C1` (stereo not drawn) [Compound P-0018, (5-chloro-1H-indazol-7-yl)(3,3-difluoro-1-methylcyclobutyl)methanol], the IC50 in assay [1], in assay [2], in assay [3] and in assay [4] was 0.0001 to 10 µM each time.

Regarding `CC1(C(O)c2cc(Cl)cc3cn[nH]c23)CCCC1` (stereo not drawn) [Compound P-0021, (5-chloro-1H-indazol-7-yl)(1-methylcyclopentyl)methanol], the IC50 in assay [1], in assay [2], in assay [3] and in assay [4] was 0.0001 to 10 µM each time.

With `OC(c1cc(Cl)cc2cn[nH]c12)C1CCC(F)(F)CC1` (stereo not drawn) [Compound P-0022, (5-chloro-1H-indazol-7-yl)(4,4-difluorocyclohexyl)methanol], the IC50 in assay [1], in assay [2], in assay [3] and in assay [4] was 0.0001 to 10 µM throughout.

Take `CC1(C(O)c2c(Cl)c(Cl)cc3cn[nH]c23)CCCCC1` (stereo not drawn) [Compound P-0025, (5,6-dichloro-1H-indazol-7-yl)(1-methylcyclohexyl)methanol]: the IC50 in assay [1], in assay [2], in assay [3] and in assay [4] was 0.0001 to 10 µM throughout.

As for `CC(C)(Cc1ccccc1)C(O)c1cc(Cl)cc2cn[nH]c12` (stereo not drawn) [Compound P-0026, 1-(5-chloro-1H-indazol-7-yl)-2,2-dimethyl-3-phenylpropan-1-ol], the IC50 in assay [1], in assay [2], in assay [3] and in assay [4] was 0.0001 to 10 µM each time.

Turning to `CC(C)(c1ccccc1)C(O)c1cc(Cl)cc2cn[nH]c12` (stereo not drawn) [Compound P-0027, 1-(5-chloro-1H-indazol-7-yl)-2-methyl-2-phenylpropan-1-ol], the IC50 in assay [1], in assay [2], in assay [3] and in assay [4] was 0.0001 to 10 µM each time.

`CS(=O)(=O)N1CC2(C1)CC(O)(c1cc(Cl)cc3cn[nH]c13)C2` [Compound P-0028, 6-(5-chloro-1H-indazol-7-yl)-2-(methylsulfonyl)-2-azaspiro[3.3]heptan-6-ol]: the IC50 in assay [1] is 0.0001 to 10 µM; in assay [2], 0.0001 to 10 µM; in assay [3] it was 10 to 100 µM; in assay [4], more than 10 µM.
